Reference: US11464854B2, “Methods and compositions relating to adjuvants” (Children's Medical Center Corporation, priority 2017, dated 2022)

Experiments:
[1] = test system: cytokine and IFN-inducible gene expression in draining lymph nodes and spleen; assay type: in vivo, mice; settings: mice
[2] = test system: TNF; assay: Rat pharmacodynamics: serum TNF by ELISA; assay type: in vivo, rats; settings: rats, single IM or SC administration
[3] = molecular target: T1, human TLR8 (Homo sapiens, UniProt Q9NR97); assay: HEK293 NF-kB SEAP reporter assay, human TLR8; assay type: cell-based
T1 construct: host or cells: HEK293 with NF-kB-responsive SEAP reporter
T1 sequence (Q9NR97 27-1041): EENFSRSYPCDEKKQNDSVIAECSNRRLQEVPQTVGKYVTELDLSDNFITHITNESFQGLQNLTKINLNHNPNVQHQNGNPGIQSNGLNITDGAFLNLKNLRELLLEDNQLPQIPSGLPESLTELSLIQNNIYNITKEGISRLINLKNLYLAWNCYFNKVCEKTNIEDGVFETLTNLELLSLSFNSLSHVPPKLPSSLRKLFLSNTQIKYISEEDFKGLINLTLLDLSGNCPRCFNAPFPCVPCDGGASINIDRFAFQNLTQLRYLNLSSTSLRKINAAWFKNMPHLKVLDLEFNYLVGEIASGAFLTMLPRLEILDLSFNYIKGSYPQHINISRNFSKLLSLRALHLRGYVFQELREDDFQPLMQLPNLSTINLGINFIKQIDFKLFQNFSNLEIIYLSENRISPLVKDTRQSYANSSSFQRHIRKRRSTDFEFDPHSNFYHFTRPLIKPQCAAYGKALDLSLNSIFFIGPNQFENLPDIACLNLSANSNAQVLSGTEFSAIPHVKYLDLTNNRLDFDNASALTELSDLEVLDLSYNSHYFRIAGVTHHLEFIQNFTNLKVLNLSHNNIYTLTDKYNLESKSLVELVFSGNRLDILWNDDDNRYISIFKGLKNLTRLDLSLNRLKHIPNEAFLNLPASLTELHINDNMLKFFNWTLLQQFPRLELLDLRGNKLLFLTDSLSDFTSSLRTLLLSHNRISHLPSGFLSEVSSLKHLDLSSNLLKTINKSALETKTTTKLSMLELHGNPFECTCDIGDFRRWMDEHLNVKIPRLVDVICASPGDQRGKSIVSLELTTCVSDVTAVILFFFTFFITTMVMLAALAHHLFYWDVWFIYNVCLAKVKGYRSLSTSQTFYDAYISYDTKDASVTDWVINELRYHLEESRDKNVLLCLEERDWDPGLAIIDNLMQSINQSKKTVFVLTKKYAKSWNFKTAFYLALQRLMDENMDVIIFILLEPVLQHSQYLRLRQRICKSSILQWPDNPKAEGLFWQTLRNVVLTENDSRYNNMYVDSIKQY
Description: Human embryonic kidney (HEK)293 cells expressing human TLR7 or TLR8 with an NF-κB-responsive secreted embryonic alkaline phosphatase (SEAP) reporter gene were obtained from Novus Biologicals (Littleton, Colo.) and Invivogen (San Diego, Calif.), respectively. Cells were maintained in DMEM with 10% HI-FBS and selection antibiotics per the manufacturer's instructions. Cells were plated at 5×10^5 cells/96-well and stimulated with indicated agonist(s) for 24 h. Supernatants were harvested and analyzed for NF-κB/SEAP activation using the QuantiBlue™ kit (Invivogen). Values are expressed as fold change in OD650 over vehicle-only treated samples.

[4] = test system: FHA (B. pertussis filamentous hemagglutinin); assay: Adult mouse immunization with Infanrix (DTaP), anti-FHA serum antibody titers; assay type: in vivo, Balb/c mice; settings: 14 days post primary and secondary
Description: For immunization experiments, both neonate and adult mice were immunized intramuscularly (i.m.) in the posterior thigh with 50 μl of total vaccine dose. For adult mouse studies, Balb/c mice (6-8 weeks of age) were immunized with Infanrix (GSK, 1/100th of the human dose)±CRX649 or CRX-727 at 0.1 μg, 1 μg or 10 μg per mouse in different formulations (aqueous choline salt, liposome or alum pre-adsorbed). Serum was harvested 14 days following prime (14dp1) or boost (14dp2) and anti-FHA serum antibody IgG1 and IgG2a titers were measured by ELISA, as described below. For neonatal mouse studies, 7 day old Balb/c and C57BL/6 mice were immunized with a prime-boost schedule (two injections one week apart, for newborn mice at DOL 7 and 14). Serum was harvested 14 days following boost (14dp2) (day of life 28) and anti-FHA serum total IgG titers, IgG1 and IgG2a/IgG2c were measured by ELISA.
For anti-filamentous hemagglutinin (FHA) ELISAs, Nunc MaxiSorp™ flat bottom 96-well plates (ThermoFisher Scientific) were coated with 5 μg/ml FHA (B. pertussis Filamentous Hemagglutinin, Strain: NCTC 10739, The Native Antigen Company/Cedarlane, Burlington, N.C.) in carbonate buffer pH 9.6, incubated overnight at 4° C., washed 3× with wash buffer (KPL 10× Phosphate Buffered Saline with Tween 20 (Fisher Scientific)) and blocked with Superblock™ (ScyTek) for 1 h at room temperature (RT). […]

SMILES | IFN-related and TLR7 gene expression in the spleens ([1]; SC administration) | cytokine mRNA expression ([1]; SC administration) | time of peak cytokine mRNA expression ([1]; single SC dose, lymph node tissue and splenocytes) [h] | Blood tumor necrosis factor (TNF) concentrations, peak [2] | TLR7 vs. TLR8 selectivity ([3]; HEK293 assay) | potency for hTLR8 ([3]; among six IMQ and OA compounds, SEAP fold change) | anti-FHA IgG1 or IgG2a antibody titers [4]
CCCCCCCCCCCCCCCCCC(=O)NCCCCOn1c(CCCC)nc2c(N)nc3ccccc3c21 [3M-052, N-[4-[(4-amino-2-butyl-1H-imidazo[4,5-c]quinolin-1-yl)oxy]butyl]octadecanamide] | robust | little if any | 6 | no induced systemic TNF detectable | – | – | –
CCCCc1nc2c(N)nc3ccccc3c2n1CCO [CRX-649] | – | – | – | – | preference for TLR8 | greatest potency | not able to enhance
